In patent US20260232684A1, “FLT3 INHIBITORS AND METHODS OF USING THE SAME” (BIOVENTURES, LLC, priority 2023, published 2026):

Assays:
[1] = tested on: Ba/F3 FLT3-ITD with Thr, Ile, or Val gatekeeper residues; assay: Cell viability, Ba/F3 FLT3-ITD with Thr, Ile or Val gatekeeper; assay type: cell-based; settings: other gatekeeper mutants (Thr, Ile, Val) compared with F691M
Protocol: (§1) FIG. 3. Molecular docking study of compound 1 and impact of the most common gatekeeper variants in the human kinome on activity toward […]. […] The dim FLT3 active model was built using 1PKG (KIT) as a reference using Prime (Schrodinger®). The complex of active FLT3 bound to 1 was minimized by Embrace (Schrodinger®). […] Cells were treated with inhibitor at increasing log doses (0.1 nM-10 μM) for 48 hours. Cell viability was analyzed through CellTiter GLO.
(§2) To further investigate the possibility of a hydrophobic cage interaction and its contribution to the selectivity of compound 1, we assessed the impact of substitutions of the native phenylalanine at position 691 with the other residues most commonly found at this position in the human kinome (methionine, threonine, isoleucine, or valine). Ba/F3 cells transformed with FLT3-ITD or with FLT3-ITD substitutions at position 691 were assessed for sensitivity to compound 1 (FIG. 3C).
(§3) Exponentially growing cells (1×10^3-1×10^4 cells) were plated in triplicate in a 96-well plate with 0.1 mL of RPMI 1640+10% (vol/vol) FBS. Each triplicate was either dosed with drug or DMSO vehicle control. Drug dosing was completed at log doses ranging from 0.1 nM-10 μM. Cell viability was assessed after 48 hours using CellTiter GLO (Promega). Viability values were normalized to the vehicle control average. Numerical IC50 values were calculated in GraphPad Prism 7. […]

[2] = tested on: Ba/F3 FLT3-ITD F691M line; assay: Cell viability, Ba/F3 FLT3-ITD F691M gatekeeper mutant; assay type: cell-based; settings: IC50, 48 hours, CellTiter GLO
Protocol: as §1, §2, §3

[3] = target: FLT3 D835Y (Homo sapiens, UniProt P36888, D835Y); assay: Enzyme kinetic analysis (5-FAM microfluidic assay), FLT3 D835Y; assay type: biochemical; settings: variable ATP and inhibitor concentrations
Protocol: FIG. 14. Enzyme kinetic analysis of compound 1 and 2 against FLT3 and FLT3 D835Y. The 5-FAM labeled microfluidic assay was utilized and all the activities were measured using Caliper EZ Reader II with a 12-sipper chip. In the presence of variable concentrations of compound 1 or 2, phosphorylation activities of FLT3 and FLT3 D835Y were measured at different level of ATP within certain time durations.
To further assess putative binding modes of compounds 1 and 2, enzyme kinetic analyses were performed.

[4] = tested on: Molm-14 F691L cells stably expressing firefly luciferase; assay: Circulating tumor model, Molm14 F691L luciferase; assay type: in vivo
Protocol: FIG. 7. […] Molm14 F691L stably expressing FLuc9 were engrafted in mice through tail vein injection. Mice were imaged once every three days.
Molm-14 F691L cells stably expressing firefly luciferase were injected into the tail vein of NSG mice and tumor growth was monitored through bioluminescence.

## CN(C)CCNc1ncc(F)c(-c2cnc3cc(-c4cnn(C)c4)ccn23)n1 [Compound 1]
[1]
  loss of activity relative to the Ba/F3 FLT3-ITD line, in words: an even greater impact
[2]
  loss of activity relative to the Ba/F3 FLT3-ITD line: ~100 fold

## CC(C)(C)c1cc(NC(=O)Cc2ccc(-c3cnc4cc(-c5cnn(CCN6CCOCC6)c5)ccc4n3)cc2)no1 [Compound 2, N-(5-(tert-butyl)isoxazol-3-yl)-2-(4-(6-(1-(2-morpholinoethyl)-1H-pyrazol-4-yl)quinoxalin-2-yl)phenyl) acetamide]
[3]
  binding mode / inhibition model from enzyme kinetics: intermediate conformation between type 1 and type 2
[4]; both doses of compound 2 (5 or 10 mg/kg) vs gilteritinib 33 mg/kg
  tumor growth compared to gilteritinib: statistically significant difference compared to gilteritinib
[4]; daily oral gavage 14 days, compound 2 5 or 10 mg/kg, gilteritinib 33 mg/kg, vs vehicle control
  tumor growth (bioluminescence), in words: nearly halt all tumor growth
